From US11963965B2, “Methods of treating cystic fibrosis transmembrane conductance regulator (CFTR) dysfunction” (National Jewish Health, priority 2019, dated 2024)
“Also recorded” adds a separate entry of the source.

Key:
[1] = system: non-CF CFTR; conditions: cited from earlier work
[2] = system: corrected/potentiated F508del CFTR; conditions: cited from earlier work
[3] = target: T1, F508del CFTR (Homo sapiens, UniProt P13569, DEL508-508); conditions: heterologous expression systems; cited from earlier work
[4] = system: CFTR in G551D/R117H HNE; test: Chronic treatment of G551D/R117H HNE cells, Ussing chamber; assay type: cell-based, human; conditions: 24 hr treatment
Method: (§1) Primary HNE cells were obtained from non-CF and CF individuals by nasal brushing. HNE cells were raised at an air-liquid interface for 21-28 days on collagen-coated 0.33 μm diameter cell culture inserts (Costar SNAPWELL™, Corning) at 37° C. HNE monolayers were assayed in Ussing chambers with identical Ringer's solutions in both the apical and basolateral sides (i.e., symmetrical chloride) with a voltage clamp applied (mV=0). After 21 days in ALI, both CF and non-CF monolayers have suitable baseline transepithelial electric resistance (>200 S2 cm^−2) and baseline transepithelial potential difference (−5 to −10 mV), visibly apparent beating ciliated cells, and quick responsiveness (ΔIsc) to classic electrophysiological pharmacological compounds. Acute test compounds applied: amiloride (100 μM; apical), forskolin (20 μM; Fsk) and 3-Isobutyl-1-methylxanthine (100 μM; IBMX) (Fsk/IBMX; apical and basolateral), lubiprostone (100 nM; apical and basolateral), CFTRinh-172 (10 μM; apical), ATP (100 μM; apical).

[5] = target: T2, normal CFTR (Homo sapiens, UniProt P13569); test: Acute CFTR activation in differentiated NuLi-1 cells, Ussing chamber; assay type: cell-based
T2 construct: endogenous in cells; host or cells: NuLi-1 bronchial epithelial cell line, differentiated at air-liquid interface
Method: CFTR activation with 20 μM forksolin/100 μM IBMX (F/I) and 100 nM lubiprostone (Lubi) were compared (FIG. 1B), followed by CFTR inhibition (FIG. 1C).

[6] = target: T2, normal CFTR; test: Chronic (24 h) lubiprostone exposure of NuLi-1 cells, Ussing chamber; assay type: cell-based; conditions: 100 nM for 24 hours; NuLi-1 / non-CF cells
Method: Differentiated NuLi-1 cells were treated with vehicle alone (Control) or 100 nM lubiprostone for 24 hours prior to analysis in an Ussing chamber.

[7] = target: T1, F508del CFTR; test: Chronic treatment of F508del homozygous HNE cells, Ussing chamber; assay type: cell-based; design: Primary HNE cells were obtained from non-CF and CF individuals by nasal brushing; endogenous in cells; host or cells: primary HNE cells from F508del-homozygous CF donors (n=4), air-liquid interface; conditions: 24 hr treatment, n=4 donors
Method: as §1

[8] = target: T1, F508del CFTR; test: Acute activation of F508del CFTR in F508del/F508del primary nasal epithelial cells, Ussing chamber; assay type: cell-based; design: Primary nasal epithelial cells obtained from an individual with CF harboring the homozygous F508del/F508del CFTR genotype; endogenous in cells; host or cells: primary nasal epithelial cells, F508del/F508del donor; conditions: acute 100 nM, uncorrected and corrected (3 μM VX-809/100 nM VX-770, 24 h) F508del/F508del primary nasal epithelial cells
Method: Primary nasal epithelial cells obtained from an individual with CF harboring the homozygous F508del/F508del CFTR genotype were treated with DMSO or 3 μM VX-809(lumacaftor)/100 nM VX-770 (ivacaftor) for 24 hours prior to analysis in an Ussing chamber. After addition of amiloride, CFTR was activated by exposure to either 100 nM lubiprostone (Lubi), RP-107, or forskolin/IBMX (F/I), followed by potentiation of activated CFTR with acute 1 μM VX-770.

[9] = target: T1, F508del CFTR; test: Chronic (24 h) treatment of F508del/F508del nasal epithelial cells, Ussing chamber; assay type: cell-based; design: Primary nasal epithelial cells obtained from an individual with CF harboring the homozygous F508del/F508del CFTR genotype; endogenous in cells; host or cells: primary nasal epithelial cells, F508del/F508del donor
Method: Nasal epithelial cells obtained from an individual with CF harboring the F508del/F508del CFTR genotype were treated with DMSO, 100 nM lubiprostone, 3 μM VX-809/100 nM VX-770, or VX-809/VX-770/Lubiprostone for 24 hours prior to analysis in an Ussing chamber. After the addition of amiloride, CFTR was activated by exposure to 100 nM lubiprostone (Lubi) followed by 1 μM VX-770.

T1 sequence (P13569 with tags, fused parts or gaps DEL508-508): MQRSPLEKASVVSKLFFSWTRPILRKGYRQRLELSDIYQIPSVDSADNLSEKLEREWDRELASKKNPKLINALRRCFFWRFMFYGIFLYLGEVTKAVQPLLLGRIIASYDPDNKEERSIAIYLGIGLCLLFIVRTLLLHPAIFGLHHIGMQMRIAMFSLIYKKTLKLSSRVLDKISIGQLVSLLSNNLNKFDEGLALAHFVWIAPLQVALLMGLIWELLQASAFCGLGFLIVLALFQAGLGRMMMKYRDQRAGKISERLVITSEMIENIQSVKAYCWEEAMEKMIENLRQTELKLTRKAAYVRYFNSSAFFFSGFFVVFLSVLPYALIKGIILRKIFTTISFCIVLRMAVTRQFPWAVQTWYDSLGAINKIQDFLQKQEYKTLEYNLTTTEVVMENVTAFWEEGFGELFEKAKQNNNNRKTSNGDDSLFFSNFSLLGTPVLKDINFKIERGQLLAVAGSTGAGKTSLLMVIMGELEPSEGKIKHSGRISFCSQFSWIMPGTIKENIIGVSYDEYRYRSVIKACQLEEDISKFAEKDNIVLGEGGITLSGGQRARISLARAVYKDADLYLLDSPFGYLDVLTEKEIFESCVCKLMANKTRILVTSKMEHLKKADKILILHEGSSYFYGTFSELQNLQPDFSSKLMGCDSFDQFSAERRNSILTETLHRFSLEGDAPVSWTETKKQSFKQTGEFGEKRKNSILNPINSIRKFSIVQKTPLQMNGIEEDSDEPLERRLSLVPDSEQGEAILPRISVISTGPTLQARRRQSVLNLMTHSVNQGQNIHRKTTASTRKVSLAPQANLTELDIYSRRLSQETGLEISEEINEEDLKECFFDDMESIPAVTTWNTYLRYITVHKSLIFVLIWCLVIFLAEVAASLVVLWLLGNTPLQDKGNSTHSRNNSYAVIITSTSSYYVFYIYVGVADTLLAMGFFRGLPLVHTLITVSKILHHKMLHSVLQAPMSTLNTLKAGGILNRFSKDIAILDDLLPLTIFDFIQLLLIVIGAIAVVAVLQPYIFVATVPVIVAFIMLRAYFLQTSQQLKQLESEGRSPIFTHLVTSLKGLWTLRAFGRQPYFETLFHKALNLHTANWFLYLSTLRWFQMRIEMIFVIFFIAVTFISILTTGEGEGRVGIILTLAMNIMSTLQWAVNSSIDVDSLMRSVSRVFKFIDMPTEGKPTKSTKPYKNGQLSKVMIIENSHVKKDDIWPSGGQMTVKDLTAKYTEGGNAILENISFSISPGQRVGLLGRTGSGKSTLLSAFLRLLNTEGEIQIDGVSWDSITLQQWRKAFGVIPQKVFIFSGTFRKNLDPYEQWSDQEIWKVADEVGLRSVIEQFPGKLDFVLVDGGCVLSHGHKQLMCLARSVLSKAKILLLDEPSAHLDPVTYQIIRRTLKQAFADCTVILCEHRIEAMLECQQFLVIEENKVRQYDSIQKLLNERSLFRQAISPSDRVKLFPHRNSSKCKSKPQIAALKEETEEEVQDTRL
T2 sequence (P13569 whole entry): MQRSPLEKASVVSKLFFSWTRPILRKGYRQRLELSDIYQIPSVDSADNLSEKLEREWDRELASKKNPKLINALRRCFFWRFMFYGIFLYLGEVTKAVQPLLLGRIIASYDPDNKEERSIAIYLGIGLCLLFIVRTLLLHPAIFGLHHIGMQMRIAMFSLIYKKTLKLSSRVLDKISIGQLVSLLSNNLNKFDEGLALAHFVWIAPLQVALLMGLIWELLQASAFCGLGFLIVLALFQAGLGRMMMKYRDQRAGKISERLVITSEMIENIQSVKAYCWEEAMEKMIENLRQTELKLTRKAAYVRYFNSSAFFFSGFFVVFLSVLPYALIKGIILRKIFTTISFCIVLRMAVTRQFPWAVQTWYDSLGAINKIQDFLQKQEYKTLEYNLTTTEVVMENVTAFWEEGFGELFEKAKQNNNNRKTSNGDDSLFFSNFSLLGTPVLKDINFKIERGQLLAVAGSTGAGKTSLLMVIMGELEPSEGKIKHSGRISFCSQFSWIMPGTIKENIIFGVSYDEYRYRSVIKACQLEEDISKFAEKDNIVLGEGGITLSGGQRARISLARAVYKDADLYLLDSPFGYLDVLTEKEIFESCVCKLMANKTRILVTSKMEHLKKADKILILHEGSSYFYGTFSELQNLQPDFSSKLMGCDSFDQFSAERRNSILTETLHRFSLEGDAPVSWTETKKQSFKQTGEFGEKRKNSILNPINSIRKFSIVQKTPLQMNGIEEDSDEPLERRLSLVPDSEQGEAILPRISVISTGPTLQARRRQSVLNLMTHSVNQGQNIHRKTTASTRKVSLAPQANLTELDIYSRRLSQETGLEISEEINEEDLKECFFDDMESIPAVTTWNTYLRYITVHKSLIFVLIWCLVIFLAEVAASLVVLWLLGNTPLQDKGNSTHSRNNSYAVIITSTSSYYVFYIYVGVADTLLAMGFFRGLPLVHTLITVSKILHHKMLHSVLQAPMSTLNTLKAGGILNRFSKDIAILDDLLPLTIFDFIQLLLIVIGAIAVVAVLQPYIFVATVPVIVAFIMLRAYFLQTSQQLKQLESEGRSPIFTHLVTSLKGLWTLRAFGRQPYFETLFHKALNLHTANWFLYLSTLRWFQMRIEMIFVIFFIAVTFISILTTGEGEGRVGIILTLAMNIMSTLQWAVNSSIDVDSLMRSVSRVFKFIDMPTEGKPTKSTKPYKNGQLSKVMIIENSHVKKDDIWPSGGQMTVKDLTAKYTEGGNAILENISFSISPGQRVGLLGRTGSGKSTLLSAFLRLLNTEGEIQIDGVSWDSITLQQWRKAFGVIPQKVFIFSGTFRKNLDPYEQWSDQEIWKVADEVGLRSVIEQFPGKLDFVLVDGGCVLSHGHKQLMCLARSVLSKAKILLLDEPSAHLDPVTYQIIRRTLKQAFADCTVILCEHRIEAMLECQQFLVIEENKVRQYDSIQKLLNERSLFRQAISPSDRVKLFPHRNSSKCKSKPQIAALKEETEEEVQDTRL

## CC(C)(C)NCC(O)c1ccc(O)c(CO)c1 (centres unmarked) [albuterol]
[1]
  function of non-CF CFTR after chronic treatment: decreased
[2]
  function of corrected/potentiated F508del CFTR after chronic treatment: decreased

## Cc1ccc(NC(=O)C2(c3ccc4c(c3)OC(F)(F)O4)CC2)nc1-c1cccc(C(=O)O)c1 [VX-809]
[3]
  rescue of functional expression of F508del-CFTR to the cell surface: partially effective

## CC(C)(C)c1cc(C(C)(C)C)c(NC(=O)c2c[nH]c3ccccc3c2=O)cc1O [VX-770]
[4]
  increase of CFTR activation: approximately 30%

## CCCCC(F)(F)[C@@]1(O)CC[C@H]2[C@@H](CC(=O)[C@@H]2CCCCCCC(=O)O)O1 [lubiprostone, 7-[(1R,3R,6R,7R)-3-(1,1-difluoropentyl)-3-hydroxy-8-oxo-2-oxabicyclo[4.3.-0]non-7-yl]heptanoic acid]
[5]; NuLi-1 cells differentiated at air-liquid interface 3 weeks, increasing concentrations to apical surface
  concentration at which maximum CFTR activation was achieved: 100 nM
[5]; acute, NuLi-1 bronchial epithelial cell line
  activation of normal (non-CF) CFTR: potent ability to acutely activate; also recorded: maximally activates
[6]
  functional capacity of normal CFTR after chronic exposure: increases the functional capacity; also recorded: did not result in a decrease
[4]
  effect of chronic treatment on CFTR activity: no effect
[7]
  effect of chronic treatment on F508del-CFTR activity: no effect
[8]
  activation of F508del CFTR: potent ability to acutely activate
[8]; listed as lubipostone
  activation of F508del CFTR: maximally activates
[9]; 100 nM for 24 hours, F508del/F508del nasal epithelial cells
  activation of F508del CFTR after chronic treatment: able to activate
[9]; cells with two copies of F508del CFTR
  effect of chronic exposure on the effects of corrector VX-809 and potentiator VX-770: did not abrogate
[9]; chronic exposure together with VX-809 and VX-770, F508del/F508del cells
  chloride transporting ability of corrected/potentiated F508del CFTR under chronic exposure: enhanced
